Data taken from US5994361A, “Substituted purinyl derivatives with immunomodulating activity” (priority 1995, dated 1999).

How the values were obtained:
DA-3 mammary carcinoma = assay: Tumor outgrowth of breast carcinoma, with cyclophosphamide (Example 92); type: in vivo, Balb/C mice
Procedure: Balb/C Mice (n-5/Gr) were used along with DA-3 mammary carcinoma cell line. The mice were treated from -2 to 13 days. Animals were monitored for tumor takes/tumor size and body weights for three weeks from Day 0 until Day 21. D0 was the day of tumor cell inoculation and D21 was the day of experiment termination.
Parameters of effect were measured by inhibition of tumor outgrowth and growth rate [tumors measured along the longest axis (length) and the perpendicular shortest axis (width) and the tumor volumes (T.V.±S.E.) was calculated by the formula T.V.=length (cm)×(width cm)^2 /2.] assessment of body weight loss.
The statistical significance of difference between tumor takes and tumor sizes of control-untreated and drug-treated groups is estimated using the Chi-square and Student's t tests respectively with significance determined at n<0.05.
The mice were divided into the following 5 groups:
Gr.1--Normal Saline (0.2 ml/mouse i.p. starting at D2)
Gr.2--CY (100 mg/kg single bolus i.v. at D0)
Gr.3--Compound #1 (25 mg/kg i.p. starting at D2)
Gr.4--Compound #1 (50 mg/kg i.p. starting at D2)
Gr.5--CY (100 mg/kg i.v. at D0+compound #1 50 mg/kg i.p. starting at D2)

blood cells = assay: Immunophenotyping on blood cells, combination with cyclophosphamide; type: in vivo, C57/BLJ6 mice; details: N = 4
Procedure: (§1) After in vivo drugs analysis, the drugs were evaluated on whole blood for drug stability and toxicity. Furthermore, in vivo/ex vivo analysis was performed on normal and cyclophosphamide immunosuppressed animals plus 5Fu-treated animals. Cell immunophenotyping was performed on mouse-treatedblood and spleen. The following cell surface antigens were analyzed:
(§2) CD3 (all T cells), CD4 (T helper/inducer, binds class II-restricted T cells), CD8a (cytotoxic T cells, CTL adhesion), CD11a (T, B, NK, some stem cells, CTL adhesion anti LFA-1α), MAC-1 (monocyte/macrophage), NK (natural killer cells), Ly5 (B cells), CD45 (all leukocytes, protein tyrosine phosphates), and TCR (T cell receptor).
(§3) C57/BLJ6 mice (6-8 weeks old) were injected daily for 4 consecutive days, sacrificed at day 5 and immunophenotyping was performed on blood and spleen cells.
(§4) The cells were washed twice in PBS, resuspended in 1 ml of RPMI 2% FBS, and incubated for 45 min. on ice with monoclonal antibody. The cells were washed once, fixed with 1% paraformaldehyde, then analyzed using XL Coulter® counter.

spleen cells [1] = assay: Immunophenotyping on spleen cells, combination with 5 Fluorouracil; type: in vivo, C57/BLJ6 mice; details: N = 4
Procedure: as §1, §2, §3, §4

spleen cells [2] = assay: Immunophenotyping on spleen cells of compound #1 treated mice; type: in vivo, C57/BLJ6 mice; details: N = 10
Procedure: as §1, §2, §3, §4

[3] = tested on: cytotoxic T lymphocytes, P815 target cells; assay: Cytotoxic T lymphocytes (CTL) assay; type: cell-based, C57B1/6 mice and DBA/2 mice; details: Mus musculus, P815, 120 h; at 10^-9 M; read-out: CTL activity, % increase compared to IL2 (100%)
Procedure: (§5) Mixed lymphocyte reaction is an in vitro counterpart of the allograft rejection. Briefly, T cell response was obtained when cells taken from two inbred strains from two outbred individuals of any species were mixed in vitro in culture.
(§6) After 4 days incubation, ^3 H thymidine uptake and cytotoxicity assay (CTL) were performed.
(§7) 3 C57B1/6 mice and 3 DBA/2 mice wre killed and lymphocytes prepared using lympholyte M. The cell concentration was adjusted to 10×10^6 cell/ml for each lysis. DBA/2 cells were irradiated with 3000 Rads. 1 ml of the C57 cells+1 ml of the DBA/2 cells+1 ml of the drug at 3 different concentrations were incubated together for 5 days. Positive control was IL-2 at 15 ng/ml final. After 5 days, the CTL and MLR tests were carried out.
P815 target cells were labelled with Cr^51. After labelling, the cells were resuspended to 5×10^4 cells/ml.
100 μl of target cells+100 μl Of T cells were incubated for 4 hrs and then 100 μl of supernatant was counted using a gamma counter.

[4] = tested on: T cell response (mixed lymphocyte reaction); assay: Mixed lymphocyte reaction (MLR) assay; type: cell-based, C57B1/6 mice and DBA/2 mice; details: at 10^-9 - 10^-5 M
Procedure: as §5, §6, §7
The cells were resuspended and 100 μl of cell suspension were deposited in each of the 96 wells in the plate, 50 μl of Thymidine at 20 μCi/ml was added for 6 hrs. The cells were then collected and counted using a beta counter.

[5] = tested on: B cell activity (LPS), spleen mononuclear leukocytes; assay: Mitogenic proliferation on spleen cell suspension, B (LPS); type: cell-based, C57BL-6 mice; details: Mus musculus, Leukocyte, 72 h; at 10^-6 (M)
Description: (§8) Mitogenic lectin (mitogen) is a protein which binds and cross-links specific cells surface carbohydrate determinants, and will polyclonally stimulate lymphoid cells. Lymphocyte activation by either antigens or mitogens results in intracellular changes and the subsequent development into a lymphoblast. Mitogenic stimulation of lymphocytes in vitro is believed to mimic the series of events which occur in vivo following their stimulation by specific antigens. PHA, ConA, and PWM, LPS mitogens can be used as a measurement of T cell and B cell activity, respectively.
(§9) Briefly, spleen mononuclear leukocytes from C57BL-6 mice were incubated in the presence or absence of mitogens with or without tested drugs. After 72 hours or 5 days, ^3 H thymidine incorporation was recorded as an indication of cell transformation and proliferation.
(§10) 100 μl of a suspension of 2×10^6 cells/ml (2×10^5 cells/well) were incubated in presence of PHA or ConA or PWM or LPS at the following concentrations:
(§11) PHA=0.01% final concentration-0.001%
(§12) Cells were incubated in presence or absence of drugs for 72 hours. 0.5 or 1 μCi of tritiated thymidine (^3 H) was added per well the last 18 or 6 hours of incubation respectively. Cells were harvested and counted on a Beta counter.

spleen cells [6] = assay: Immunophenotyping on spleen cells, combination with cyclophosphamide; type: in vivo, C57/BLJ6 mice; details: in combination with cyclophosphamide
Procedure: as §1, §2, §3, §4

[7] = tested on: T cell activity (ConA), spleen mononuclear leukocytes; assay: Mitogenic proliferation on spleen cell suspension, T (ConA); type: cell-based, C57BL-6 mice; details: at 10^-8 - 10^-5 (M); 4320 min
Description: as §8, §9, §10, §11, §12

`CN(C)c1ncnc2c1ncn2CCCCCOC(=O)N[C@H](CCCNC(=N)N)C(=O)O` [Compound #1, N,N-Dimethylaminopurinyl Pentoxycarbonyl D-Arginine] was tested, and the Tumor takes (DA-3 mammary carcinoma; #1 25 mg/kg, day 4) was 2/5, the Tumor takes (DA-3 mammary carcinoma; #1 25 mg/kg, day 6) was 2/5 and the Tumor takes (DA-3 mammary carcinoma; #1 25 mg/kg, day 8) was 3/5. The Tumor takes (DA-3 mammary carcinoma; #1 25 mg/kg, day 10) was 4/5, the Tumor takes (DA-3 mammary carcinoma; #1 50 mg/kg, day 4) was 3/5 and the Tumor takes (DA-3 mammary carcinoma; #1 50 mg/kg, day 6) was 3/5. For the same compound, the Tumor takes (DA-3 mammary carcinoma; #1 50 mg/kg, day 8) was 3/5, the Tumor takes (DA-3 mammary carcinoma; #1 50 mg/kg, day 10) was 3/5 and the Tumor takes (DA-3 mammary carcinoma; CY 100 mg/kg + #1 50 mg/kg, day 4) was 4/5. For the same compound, the Tumor takes (DA-3 mammary carcinoma; CY 100 mg/kg + #1 50 mg/kg, day 6) was 5/5, the Tumor takes (DA-3 mammary carcinoma; CY 100 mg/kg + #1 50 mg/kg, day 8) was 5/5 and the Tumor takes (DA-3 mammary carcinoma; CY 100 mg/kg + #1 50 mg/kg, day 10) was 5/5. The “CP8+ CD45+ (mean)” value (blood cells; CY + cpd #1 25 mg/kg) was 13.25, the “CP8+ CD45+ (mean)” value (blood cells; CY + cpd #1 50 mg/kg) was 20.8 and the “CD4+ CD45- (mean)” value (spleen cells [1]; 5 FU + cpd #1 25 mg/kg) was 13.19. For the same compound, the “NK+ (mean)” value (spleen cells [1]; 5 FU + cpd #1 25 mg/kg) was 3.32, the “CD4+ CD45- (mean)” value (spleen cells [1]; 5 FU + cpd #1 50 mg/kg) was 12.06 and the “NK+ (mean)” value (spleen cells [1]; 5 FU + cpd #1 50 mg/kg) was 3.17. For the same compound, the “Ly5 (mean)” value (spleen cells [2]; 25 mg/kg) was 54.08, the “TCR+ (mean)” value (spleen cells [2]; 25 mg/kg) was 39.78 and the “Ly5 (mean)” value (spleen cells [2]; 50 mg/kg) was 50.35. The “TCR+ (mean)” value (spleen cells [2]; 50 mg/kg) was 45.09, the activation at 0.001 µM [3] was > 80% and the MLR [4] was 1.5 - 4 ×. For the same compound, the fold induction at 1 µM [5] was 2, the “Immunophenotyping, spleen” value (spleen cells [6]) was “no effect” and the “T (ConA) mitogenic proliferation” value [7] was 2 - 4 ×.
